The source of these data is patent US20180055049A1, “USE OF PRO-[…] UK-2A FOR CONTROL OF BROWN ROT DIESEASE ON STONE AND POME FRUITS” (Dow AgroSciences LLC, priority 2016, published 2018).

What all share (assay type): in vivo
Assay [1] relates to Monilinia fructicola (MONIFC). In words: Field trial 3: brown rot of fruits, peach, Ravenna, northeastern Italy. Particulars: Trial 3, fruits, 200 g ai/Ha. As to the method:
A third trial was conducted in Italy in order to investigate the effectiveness of Compound I against brown rot of fruits. This trial was designed as randomized complete block with four replications and plots of 49.5 m^2 and was carried out in a typical area for peach cultivation in the province of Ravenna in northeastern Italy. The trial was conducted under EPPO PP1/222(1), PP1/135(2), PP1/152(3), PP1/181(3), PP1/225(1), PP1/239(1) and related guidelines. Products were sprayed twice during fruit ripening respectively at BBCH 79-81 and 81-85 of plant grow stage using a self-propelled air-assisted multi plot sprayer designed for efficacy trials with four independent series of 8 nozzles (Albutz, ATR 80 Yellow) calibrated to apply a spray volume of 1,000 L/ha at a pressure of 450 KPa according to the orchard canopy.
The pathogen was certificated to be Monilinia fructicola (MONIFC) by means of an immunoassay followed by a PCR assay on material collected (mummies) from the trial. The brown rot damage at harvest was evaluated on l00 randomly picked fruits per plot. Visual healthy samples of 60 fruits per plot were placed in alveolus plates and kept for 5 days in cold storage. Afterwards the samples were maintained for 14 days at about 20° C. (shelf life period). Several assessments were made in order to check the development of disease during the shelf life simulation. […]

Assay [2] deals with Monilinia spp. (MONILA). In words: Field trial 1: brown rot of flowers and branches, apricot, northeastern Italy. The settings on record: for % Incidence, Branches: Trial 1, branches, 24 DAA, untreated 23.50; for % Incidence, Flowers: Trial 1, flowers, 8 DAA, untreated 21.00. The procedure:
(§1) A fungicidal treatment containing Compound I for use against brown rot diseases on stone fruits was carried out in three field trials. The first two trials were carried out in Italy and France in order to investigate the effectiveness of Compound 1 against brown rot of flowers. These two trials were designed as randomized complete block with four replications (plots respectively of 35 and 50 m^2) and were carried out in typical areas for apricot and peaches cultivation, respectively, in northeastern Italy and southern France. Trials were conducted under EPPO PP1/38(2), PP1/135(3), PP1/152(3), PP1/181(3), PP1/239(1) and related guidelines. Trials were sprayed three times during the flowering period, using a backpack mist blower equipment calibrated to apply product respectively at 600 and 700 L/ha of water volume. […] MONILA disease was evaluated on flowers on a sample of ten pre-marked branches per tree, aged one year. The number of infected flowers was counted and consequently the percent incidence was then calculated. A second assessment was then made on 50 small branches randomly selected in the two 2 central trees for each plot, counting the number of diseased small branches and then the % incidence was calculated.

Assay [3] has as its system Monilinia spp. (MONILA). In words: Field trial 2: brown rot of flowers and branches, peaches, southern France. The settings on record: for % Incidence, Branches: Trial 2, branches, 22 DAA, untreated 30.60; for % Incidence, Flowers: Trial 2, flowers, 8 DAA, untreated 55.30. The procedure:
as §1

In the case of `COc1ccnc(C(=O)N[C@H]2COC(=O)[C@H](Cc3ccccc3)[C@@H](OC(=O)C(C)C)[C@H](C)OC2=O)c1OCOC(=O)C(C)C` [Compound I], the “% Incidence, Fruits” value in assay [1] (7 DAA, untreated 31.3) is listed as 15.0%; in assay [1] (26 DAA, untreated 32.5), 16.8%. The “% Incidence, Branches” value amounted to 22.50% in the assay on Monilinia spp. (MONILA) [2] (75 g ai/Ha); 24.50% in the assay on Monilinia spp. (MONILA) [2] (100 g ai/Ha); 11.00% with Monilinia spp. (MONILA) [2] (150 g ai/Ha); 11.98% with Monilinia spp. (MONILA) [3] (75 g ai/Ha); 9.93% in the assay with Monilinia spp. (MONILA) [3] (100 g ai/Ha); 4.20% in the assay with Monilinia spp. (MONILA) [3] (150 g ai/Ha). The “% Incidence, Flowers” value came out at 11.25% in the assay on Monilinia spp. (MONILA) [2] (75 g ai/Ha); 4.75% in the assay with Monilinia spp. (MONILA) [2] (100 g ai/Ha); 3.25% in the assay with Monilinia spp. (MONILA) [2] (150 g ai/Ha); 24.00% in the assay with Monilinia spp. (MONILA) [3] (75 g ai/Ha); 16.70% in the assay with Monilinia spp. (MONILA) [3] (100 g ai/Ha); 15.40% in the assay with Monilinia spp. (MONILA) [3] (150 g ai/Ha).
